These results are taken from patent US20110130355A1, “USE OF SOPHORICOSIDE IN THE MANUFACTURE OF MEDICAMENTS” (priority 2008, published 2011).

Marks after values point to notes of the source that are not given here.

In series [1] the test system is uterus. The series can be described thus: Wet weights of uteri of ovariectomized rats. Format: in vivo, SD rats. To be noted: OVX rats, 11 weeks. The method, then:
OVX group and the intervention groups: The rats were anesthetized by intraperitoneal injection of 1% pentobarbital sodium at 5 ml/kg. After the onset of anesthesia, the rats were positioned face-down and dehaired at the third lumbar vertebra below the costal arch. The skin was sanitized by benzalkonium bromide and incised by about 1 cm. The subcutaneous tissue and the fascia were incised, and the muscle was bluntly separated. The peritoneum was carefully cut open. White fat was lifted carefully by using tissue forceps inserted to the abdominal cavity through the incision. The fat was gently turned over to expose the quincuncial ovary, which was then ligated by sterile 1 silk thread. The ovary was separated by cutting the oviduct by ophthalmic scissors. After hemostasis by compression, the fat was returned into the abdominal cavity. Subsequently, an incision was made on the opposite side and the same procedures were carried out to excise the ovary on the opposite side. The peritoneum, the fascia, the subcutaneous tissue, and the skin were sutured one by one. The incisions were sanitized.
The vehicle was 1% sodium carboxymethylcellulose (CMC-Na). The sham group and OVX group were administered the vehicle by gavage.
Intervention groups were administered the following formulations of active agents dissolved in the vehicle: […]
The rats were sacrificed by cervical dislocation after 11 weeks. Uteri were removed, weighted, and fixed in 4% paraformaldehyde (PFA). The whole right knee joints were removed and fixed in 4% PFA.
The rats were weighted, and then sacrificed. The uteri were removed from the rats and determined for wet weights.
Statistical analysis of variance was performed. The variance of the wet weights internal to the SHAM group was high, possibly attributing to different stages of menstrual cycle. In all groups, the body weights before the treatment were not statistically different from those after the treatment. The wet weights of uteri obtained from the ovariectomized groups were statistically different from those obtained from the SHAM group (p<0.01), indicating a successful ovariectomy.

Series [2] concerns articular cartilage of the knee joint. The series can be described thus: Articular surface lesions of the knee joint (toluidine blue staining, image analysis). Format: in vivo, SD rats. As to conditions: OVX rats, 11 weeks; for lesion percentage for the articular surface, total: whole knee joint. Here is the method: 1. The Pathological Sections of the Knee Joints of Rats
1) The knee joints of rats were fixed in 4% PFA for 48 hours;
2) The samples were decalcified in 15% ethylenediamine tetraacetic acid (EDTA) for 15 days;
The coronal sections were sectioned by a paraffin microtome (Leica, Model: RM2235) at thickness of 5 μm with the medial collateral ligament being used as a marker. The sections were transferred into warm water at 30° C., and plated on slides pre-treated with polylysine. The slides were transferred to an incubator at 65° C. for 3 hours and stored at ambient condition until use.
2) Staining: The sections were stained in 1% Ammonia Toluene blue for 5 minutes and rinsed with water for 10 minutes;
The lesion lengths in the four weight-bearing articular cartilage surface lesion regions of medial and lateral femoral condyles and medial and lateral tibial plateaus were measured with Axioplan 2 microscopy imaging analysis system (Axioplan 2 multifunctional automatic fluorescent microscope, KS400 imaging analysis system Ver. 3.0, AxioCam digital camera at a resolution of 3900×3090) by two independent persons skilled in the imaging art (FIGS. 3A and 3B). The results were averaged. The lesion percentage for each of the four articular surfaces was calculated. Finally the total lesion percentage for the knee joint was calculated as:
The lesion percentage for each part of the articular surface=lesion length/total length of the weight-bearing articular surface×100%.
The lesion percentage for articular surface of the knee joint=total lesion length/total length of the articular surface×100%.

The test system of series [3] is CTX-II. The series can be described thus: Determination of the urinary CTX-II content (competitive ELISA, creatinine corrected). Format: in vivo, SD rats. To be noted: OVX rats, urine at 3, 5, 7 weeks, FIG. 2, vs. model group. The method, then:
Urine samples (1˜1.5 ml) were collected in eppendorf tubes from the rats before modeling and at 3 weeks, 5 weeks and 7 weeks by using metabolic cages, and stored at −20° C.
1. The concentrations of CTX-II in the urine samples obtained in accordance with example 1 were determined by the Urine Pre-clinical (PC) Cartilaps ELISA kit and the competitive enzyme linked immunosorbent assay (ELISA). The concentration of creatinine (referred to as “Crea” hereinafter) in the urine samples were determined by the multifunctional biochemistry analyzer (Beckman coulter, DXC800). The CTX-II contents were corrected by the following formula:
Corrected CTX-II ([…])=CTX-II (μg/L)/Crea (mmol/L) […]
12) The optical densities (ODs) were determined by a microplate reader (Molecular Devices Corporation, BD03315) at 450 nm and 650 nm, and a 4-parameter logistic regression curve was thereby obtained, so as to read the concentration of each sample.
4. Determination of Crea in the urine samples (mmol/L): The Crea concentration is determined by using a multiple biochemistry analyzer (Beckman coulter, DXC800) by the Lab Department of Shanghai Ruij in Hospital.
The CTX-II baseline ratios were calculated as the above formula, and the results were shown in FIG. 2, wherein ** indicates p<0.01 vs. the model group at the same time point, and * indicates p<0.05 vs. the model group at the same time point.
(ELISA stands for enzyme-linked immunosorbent assay.)

Series [4] concerns croton oil-induced ear edema. As to conditions: in vivo; cited from earlier work.

For `O=c1c(-c2ccc(O[C@@H]3O[C@H](CO)[C@@H](O)[C@H](O)[C@H]3O)cc2)coc2cc(O)cc(O)c12` [HDA, 3-[4-(β-D-glucopyranosyl)-benzyl]5,7-dihydro-4H-1-benzopyran-4-one (4′,5,7-trihydroxylisoflavone-4′-D-glucoside)], the “Wet weight of uterus” value was found to be 0.143 ± 0.008 g in series [1] (sophoricoside 10 mg/kg/day), 0.129 ± 0.008 g in series [1] (sophoricoside 20 mg/kg/day), 0.162 ± 0.013 g in series [1] (sophoricoside 40 mg/kg/day) and 0.166 ± 0.017 g in series [1] (sophoricoside 80 mg/kg/day). For the same molecule, the “articular cartilage degeneration resulted from ovariectomy, in words” value in series [2] (sophoricoside 10 mg/kg/day) was “ameliorated by the interventions other than HDA10 and HDA20”; in series [2] (sophoricoside 20 mg/kg/day), “ameliorated by the interventions other than HDA10 and HDA20”; in series [2] (sophoricoside 40 mg/kg/day), “effective but not able to completely reverse the degeneration”; in series [2] (sophoricoside 80 mg/kg/day) it was “significantly more effective than OVX”. Moreover, the “lesion percentage for the articular surface, total” value in series [2] (sophoricoside 10 mg/kg/day) is reported as 7.785 ± 0.547^□□ %; in series [2] (sophoricoside 20 mg/kg/day) it was 6.622 ± 0.366^□□ %; in series [2] (sophoricoside 40 mg/kg/day), 5.617 ± 0.264*^□□ %; in series [2] (sophoricoside 80 mg/kg/day) it was 4.808 ± 0.603 %. The “metabolic peak of urinary CTX-II (ratio to baseline) shortly after ovariectomy” value in series [3] (sophoricoside 40 mg/kg/day) was “also have this effect, but in a weaker manner”; in series [3] (sophoricoside 80 mg/kg/day) it was “significantly suppress the metabolic peak of CTX-II shortly after ovariectomy”. Besides, in series [4], the “croton oil-induced ear edema” value is “inhibit”.
